# From ChEMBL document CHEMBL5303573, “Mapping human microbiome drug metabolism by gut bacteria and their genes” (Nature, 2019)
# How the values were obtained:
# [1] = The drug is tested on Bacteroides fragilis strain: HMW615 for biotransformation. The drug concentrations were measured before and after a 12-h incubation by liquid-chromatography-coupled mass spectrometry (LC–MS); conditions: 2 µM
# [2] = The drug is tested on Bacteroides ovatus strain: ATCC8483 for biotransformation. The drug concentrations were measured before and after a 12-h incubation by liquid-chromatography-coupled mass spectrometry (LC–MS); conditions: 2 µM
# [3] = The drug is tested on Providencia stuartii strain: ATCC25827 for biotransformation. The drug concentrations were measured before and after a 12-h incubation by liquid-chromatography-coupled mass spectrometry (LC–MS); conditions: 2 µM
# [4] = The drug is tested on Eggerthella lenta strain: ATCC25559 for biotransformation. The drug concentrations were measured before and after a 12-h incubation by liquid-chromatography-coupled mass spectrometry (LC–MS); conditions: 2 µM
# [5] = The drug is tested on Anaerococcus hydrogenalis strain: DSM7454 for biotransformation. The drug concentrations were measured before and after a 12-h incubation by liquid-chromatography-coupled mass spectrometry (LC–MS); conditions: 2 µM
# [6] = The drug is tested on Clostridium asparagiforme strain: DSM15981 for biotransformation. The drug concentrations were measured before and after a 12-h incubation by liquid-chromatography-coupled mass spectrometry (LC–MS); type: ADME; design: dose 2 uM, timepoint 0 vs 12 hours; conditions: enterocloster asparagiformis, 2 µM
SMILES,Bacterial Biotransformation [1],Bacterial Biotransformation [2],Bacterial Biotransformation [3],Bacterial Biotransformation [4],Bacterial Biotransformation [5],Bacterial Biotransformation [6]
CN1CCc2c(c3ccccc3n2Cc2ccccc2)C1.CN1CCc2c(c3ccccc3n2Cc2ccccc2)C1.O=S(=O)(O)c1cccc2c(S(=O)(=O)O)cccc12,Compound NOT metabolized,Compound NOT metabolized,Compound NOT metabolized,Compound NOT metabolized,Compound NOT metabolized,–
CN1CCC(OC(c2ccccc2)c2ccccc2)CC1,–,Compound NOT metabolized,Compound NOT metabolized,–,Compound NOT metabolized,–
CN1[C@@H]2CC[C@H]1C[C@@H](OC(=O)C(CO)c1ccccc1)C2 (stereo partly drawn) [ATROPINE],–,–,–,Compound NOT metabolized,Compound NOT metabolized,–
CN(C)CC(c1ccc(O)cc1)C1(O)CCCCC1.O=C(O)CCC(=O)O (stereo not drawn) [DESVENLAFAXINE SUCCINATE],–,Compound NOT metabolized,Compound NOT metabolized,Compound NOT metabolized,Compound NOT metabolized,Compound NOT metabolized
Br.COc1ccc2c(c1)[C@]13CCCC[C@@H]1[C@H](C2)N(C)CC3.O [DEXTROMETHORPHAN HYDROBROMIDE],–,Compound NOT metabolized,Compound NOT metabolized,–,Compound NOT metabolized,Compound NOT metabolized
C[C@H]1O[C@@H](O[C@H]2[C@@H](O)C[C@H](O[C@H]3[C@@H](O)C[C@H](O[C@H]4CC[C@@]5(C)[C@H](CC[C@@H]6[C@@H]5C[C@@H](O)[C@]5(C)[C@@H](C7=CC(=O)OC7)CC[C@]65O)C4)O[C@@H]3C)O[C@@H]2C)C[C@H](O)[C@@H]1O [DIGOXIN],Compound metabolized,Compound metabolized,Compound NOT metabolized,–,Compound NOT metabolized,Compound NOT metabolized
O=C(Nc1ccccc1)OCC(CN1CCCCC1)OC(=O)Nc1ccccc1 (stereo not drawn) [DIPERODON],Compound NOT metabolized,Compound NOT metabolized,Compound NOT metabolized,–,Compound NOT metabolized,Compound NOT metabolized
CC(C)N(CCC(C(N)=O)(c1ccccc1)c1ccccn1)C(C)C.O=P(O)(O)O (stereo not drawn) [DISOPYRAMIDE PHOSPHATE],Compound NOT metabolized,Compound NOT metabolized,Compound NOT metabolized,–,Compound NOT metabolized,–
CN(C)CCC=C1c2ccccc2COc2ccccc21 [DOXEPIN],Compound NOT metabolized,Compound NOT metabolized,Compound NOT metabolized,–,Compound NOT metabolized,–
CCN(CC)C(C)CN1c2ccccc2Sc2ccccc21 (stereo not drawn) [ETHOPROPAZINE],–,Compound metabolized,Compound metabolized,–,Compound NOT metabolized,Compound NOT metabolized
O=C1[C@H](CC[C@H](O)c2ccc(F)cc2)[C@@H](c2ccc(O)cc2)N1c1ccc(F)cc1 [EZETIMIBE],Compound NOT metabolized,–,Compound NOT metabolized,–,Compound NOT metabolized,Compound NOT metabolized
CC(C)c1c(CN(C)C(C)Cc2ccccc2)n(C)n(-c2ccccc2)c1=O (stereo not drawn) [FAMPROFAZONE],–,Compound metabolized,Compound NOT metabolized,–,Compound metabolized,–
O=C1NCC2(CCN(CCc3ccccc3)CC2)O1 [FENSPIRIDE],Compound metabolized,Compound metabolized,Compound NOT metabolized,–,Compound NOT metabolized,Compound NOT metabolized
OC(Cn1cncn1)(Cn1cncn1)c1ccc(F)cc1F [FLUCONAZOLE],–,Compound metabolized,–,Compound NOT metabolized,Compound NOT metabolized,Compound NOT metabolized
COCCCC/C(=N\OCCN)c1ccc(C(F)(F)F)cc1.O=C(O)/C=C\C(=O)O [FLUVOXAMINE MALEATE],Compound NOT metabolized,Compound metabolized,Compound NOT metabolized,–,Compound NOT metabolized,Compound NOT metabolized
COc1ccc2c3c1O[C@H]1C[C@@H](O)C=C[C@@]31CCN(C)C2 [GALANTAMINE],Compound metabolized,Compound metabolized,–,–,Compound NOT metabolized,Compound NOT metabolized
Nc1nc(N)nc(-c2cc(Cl)ccc2Cl)n1.O=C(O)/C=C\C(=O)O [IRSOGLADINE MALEATE],Compound NOT metabolized,Compound NOT metabolized,Compound NOT metabolized,–,Compound NOT metabolized,–

SMILES,Bacterial Biotransformation [1],Bacterial Biotransformation [2],Bacterial Biotransformation [3],Bacterial Biotransformation [4],Bacterial Biotransformation [5],Bacterial Biotransformation [6]
CN1CCC(=C2c3ccccc3CC(=O)c3sccc32)CC1.O=C(O)/C=C/C(=O)O [KETOTIFEN FUMARATE],–,Compound NOT metabolized,Compound NOT metabolized,Compound NOT metabolized,Compound NOT metabolized,–
CC(CCc1ccccc1)NCC(O)c1ccc(O)c(C(N)=O)c1 (stereo not drawn) [LABETALOL],Compound NOT metabolized,Compound NOT metabolized,Compound NOT metabolized,Compound NOT metabolized,Compound NOT metabolized,–
Nc1nnc(-c2cccc(Cl)c2Cl)c(N)n1 [LAMOTRIGINE],Compound NOT metabolized,Compound NOT metabolized,Compound NOT metabolized,–,Compound NOT metabolized,–
CN1C(=O)CC(C)(c2ccccc2)C1=O (stereo not drawn) [METHSUXIMIDE],–,Compound NOT metabolized,–,–,Compound NOT metabolized,–
CCN(CC)CCNC(=O)c1cc(Cl)c(N)cc1OC [METOCLOPRAMIDE],Compound NOT metabolized,Compound NOT metabolized,Compound NOT metabolized,Compound NOT metabolized,Compound NOT metabolized,–
CN1CCN2c3ccccc3Cc3ccccc3C2C1 (stereo not drawn) [MIANSERIN],Compound NOT metabolized,Compound NOT metabolized,Compound NOT metabolized,–,Compound NOT metabolized,Compound NOT metabolized
COc1ccccc1N1CCN(CC(O)COc2cccc3ccccc23)CC1 (stereo not drawn) [NAFTOPIDIL],–,Compound NOT metabolized,Compound NOT metabolized,Compound NOT metabolized,Compound NOT metabolized,Compound NOT metabolized
CC(C)[C@H]1CC[C@H](C(=O)N[C@H](Cc2ccccc2)C(=O)O)CC1 [NATEGLINIDE],Compound metabolized,Compound NOT metabolized,Compound NOT metabolized,–,Compound NOT metabolized,–
CN1CCOC(c2ccccc2)c2ccccc2C1 (stereo not drawn) [NEFOPAM],–,Compound NOT metabolized,Compound NOT metabolized,–,Compound NOT metabolized,–
CN(C)C(=O)Oc1cccc([N+](C)(C)C)c1.[Br-] [NEOSTIGMINE BROMIDE],–,Compound metabolized,Compound NOT metabolized,Compound NOT metabolized,Compound NOT metabolized,–
Cc1ccnc2c1NC(=O)c1cccnc1N2C1CC1 [NEVIRAPINE],Compound NOT metabolized,Compound NOT metabolized,Compound NOT metabolized,–,Compound NOT metabolized,–
Cc1ccccc1C(OCCN(C)C)c1ccccc1.O=C(O)CC(O)(CC(=O)O)C(=O)O (stereo not drawn) [ORPHENADRINE CITRATE],Compound NOT metabolized,Compound NOT metabolized,Compound NOT metabolized,–,Compound NOT metabolized,Compound NOT metabolized
O=C(O)CCc1nc(-c2ccccc2)c(-c2ccccc2)o1 [OXAPROZIN],Compound metabolized,Compound NOT metabolized,Compound NOT metabolized,–,Compound NOT metabolized,Compound metabolized
COc1ccc(Cc2nccc3cc(OC)c(OC)cc23)cc1OC [PAPAVERINE],–,Compound NOT metabolized,Compound NOT metabolized,Compound NOT metabolized,Compound NOT metabolized,–
Fc1ccc([C@@H]2CCNC[C@H]2COc2ccc3c(c2)OCO3)cc1 [PAROXETINE],Compound NOT metabolized,Compound NOT metabolized,Compound NOT metabolized,–,Compound metabolized,Compound NOT metabolized
CC(=O)CCCCn1c(=O)c2c(ncn2C)n(C)c1=O [PENTOXIFYLLINE],–,Compound NOT metabolized,Compound NOT metabolized,–,Compound NOT metabolized,Compound NOT metabolized
